Assay results: patent US8466203B2, “Method of stabilizing human eye tissue by reaction with nitrite and related agents such as nitro compounds” (priority 2006, dated 2013)
Where “and” joins values, the source holds several entries; their conditions need not be identical. Equal values may be shown once. Read-outs that look alike come from different tables or passages of the source.

Key:
[1] = test system: bovine corneal endothelial cells; details: 48 hrs exposure
[2] = test system: porcine cornea; assay: Gross stiffness of porcine corneal strips handled with a forceps; details: 100 mM, pH 7.4, 37° C., 48 hrs
Method: Fresh porcine corneal strips and corneoscleral complexes obtained within 6 hrs of sacrifice and incubated at 37° C. in buffered solutions (pH 7.4) containing 20% Dextran (T500) and either 100 mM NaNO2 or 100 mM of one each of the specified β-nitro alcohols
(§1) These images were taken from tissues cross-linked with nitrite and the β-nitro alcohols 2-nitroethanol, 2-nitro-1-propanol, and […], for 48 hrs. […] Fresh porcine corneal strips and corneoscleral complexes were obtained within 6 hrs of sacrifice and incubated at 37° C. in buffered solutions (pH 7.4) containing 20% Dextran (T500) and either 100 mM NaNO2 or 100 mM of one each of the β-nitro alcohols. After 48 hrs, the following images were obtained. […] FIGS. 13 (B and D)

[3] = test system: ARPE-19 cells
Excerpt: A cytotoxicity study was undertaken to obtain an impression of the level of cellular tolerance to these compounds. For pilot experiments ARPE-19 cells were used. This is an immortal human retinal pigment epithelial cell line commonly used for experiments related to macular degeneration. In these pilot studies, the ARPE-19 cells serve as a surrogate for cytotoxicity experiments. Primary cultures of bovine corneal endothelial cells were also used in the cytotoxicity studies described. Bovine corneal cells have more direct relevance for evaluating potential cytotoxic effects during cross-linking of living eye tissue.
ARPE-19 cells were grown to 80% confluence in 96 well tissue culture plates. The cells were then exposed to varying concentrations of NaNO2 and 2-nitroethanol in their culture medium and evaluated for cell death using trypan blue (TB) staining (0.4% for 5 min) after 24 hrs.

[4] = test system: primary bovine corneal endothelial cells; details: for Cytotoxic threshold (using trypan blue): 48 hrs exposure
[5] = test system: porcine cornea; assay: Light transmission of cross-linked corneo-scleral complexes; details: 10 mM, 96 hrs incubation
Method: Following a 96 hrs incubation period at 10 mM, the corneo-scleral complexes were mounted between 2 pieces of quartz, previously determined to have no ultraviolet absorption. […] The sample was then mounted in a vertical, adjustable stage apparatus specifically designed to accommodate a PC 1000 Fibre Optic Spectrometer (Ocean Optics, Inc.). A xenon lamp was used as a light source and was connected to the upper half of the stage. The lower half was connected to a high sensitivity CCD mounted on a card which is installed in a PC computer. The CCD array detector captures a full wavelength spectrum (i.e. 200-1000 nm).
The absorption spectrum for each sample was recorded and exported into Microcal Origin 6.1 for processing. […] The scattering component was subtracted from the observed absorption spectrum by first fitting the scattering (non-absorption) portion of the spectrum (e.g. 700-800 nm) to the formula A=aλ^b, where A is the absorbance, λ is the wavelength, b is the order of the relationship between absorbance and wavelength, and a is a constant. The background signal due to scattering for all other wavelengths is then estimated using the coefficients determined from the fit. […] After scatter correction, the transmission spectrum for each absorption spectrum was calculated according to the Beer-Lambert law (T=10^−A×100%), where T is the transmission and A is the absorbance at each wavelength. […]

[6] = test system: porcine sclera; assay: Yellowing of cross-linked scleral tissue
Method: Additional β-nitro alcohols related to 2-nitroethanol were also tested for scleral cross-linking efficacy. In addition to 2-nitroethanol, there was 2-nitro-1-propanol, 3-nitro-2-pentanol, and 2-nitrophenol. […] This effect was not blocked by addition of equimolar urea (Table 5).

[7] = test system: porcine cornea; assay: Thermal shrinkage temperature analysis of porcine corneal strips
Excerpt: Thermal shrinkage temperature or denaturation temperature (Ts) is a technique that has been used for decades in studying collagen cross-linking. As collagen fibers are progressively heated, a threshold temperature is reached at which point disruption of hydrogen bonding in the collagen molecule triple helix occurs, resulting in unwinding of the triple helices. The denaturation of tertiary protein structure results in a rapid shrinkage of the tissue of up to 80%. This phenomenon can be expressed in various ways including temperature of onset of tissue shrinkage, temperature at maximal tissue shrinkage, and temperature at 50% of maximal tissue shrinkage, for example. In addition, differential scanning calorimetry (DSC) is related to thermal shrinkage temperature analysis and is widely used to evaluate biomaterial cross-linking. Thermal shrinkage temperature is essentially a simplified version of DSC and can be used effectively to screen the cross-linking efficacy of compounds. For the purposes of this study, the onset of shrinkage is considered the Ts and the temperature at which 50% of maximal shrinkage has occurred is T50. Graphs depicting the relationship between degree of shrinkage and temperature indicate differences in degree of cross-linking between groups. Thus, stabilization of collagen fiber structures through non-enzymatic cross-linking increases Ts and T50.
This system can perform multiple Ts assays in succession, allowing rapid screening of a number of potential cross-linking agents and conditions. […] Inlet and outlet fittings allow for constant circulation of heated water which is modulated by a digitally controlled water bath equipped with a water pump. The entire box is placed on a digital photo scanner connected to a Windows based computer. Beginning at 50° C. the temperature is raised at a rate of 1° C./min and serial scans are taken at every degree increase in temperature up to 80° C. […] As the tissue shrinks, the images are captured by the scanner. The image files are later analyzed for 2-dimensional area using NIH Image J software and % shrinkage calculations are made using Microsoft Excel for graphing purposes. This method obviates the need for removal of tissue pieces from the water bath with manual micrometer measurements as described by the UVR group (Spoerl, E., et al., 2004).
Using this simple, reproducible assay enables the screening of a number of compounds for cross-linking efficacy. This is first performed using porcine eyes because of their low cost. Follow up studies can be performed using human eyes. Porcine eyes are obtained within 6 hrs of sacrifice (Hatfield Meat Packing, Inc., Hatfield Pa.). Eyes showing clear corneas and intact epithelia are chosen for study. […] Each strip is then cross-linked using a nitro agent. The incubation solution is 20% Dextran (T500) [to prevent tissue swelling] in 0.2 M NaH2PO4/Na2HPO4 (pH 7.4) with various concentrations of nitro agent (i.e. 1, 10, and 100 mM). […] The samples are then placed in 2 mL microcentrifuge tubes with 1 mL of incubation solution and reacted in a 34° C. water bath (simulating corneal temperature—Girardin, F., et al., “Relationship between corneal temperature and finger temperature,” Arch. Opthalmol. 1999; 117:166-169) for 24-96 hrs. Following incubation, the samples are evaluated for degree of cross-linking using the Ts assay as described above.

[8] = test system: porcine cornea; assay: Yellowing of cross-linked porcine cornea; details: 100 mM concentration
Method: as §1
As such, the effects on corneal light transmission induced by cross-linking with β-nitro alcohols was evaluated using a method adopted from Dillon et al 2004.

O=[N+]([O-])CCO [2-nitroethanol]
Apoptosis (Annexin V) staining ([1]; 0.1 mM): −
Apoptosis (Annexin V) staining ([1]; 0.5 mM): −
Apoptosis (Annexin V) staining ([1]; 0.75 mM): −
Apoptosis (Annexin V) staining ([1]; 1 mM): −
Apoptosis (Annexin V) staining ([1]; 2 mM): −
Apoptosis (Annexin V) staining ([1]; 3 mM): +
stiffness change when handled with a forceps [2]: dramatic stiffness change
trypan blue (TB) uptake ([3]; 1 mM, 24 hrs): no TB was taken up
trypan blue (TB) uptake ([3]; 10 mM, 24 hrs): all of the cells took up TB
cytotoxic threshold ([3]; 24 hrs, trypan blue): > 1 mM and 1 to 10 mM
highest tolerated level ([3]; ARPE-19): 1 mM
tolerable level ([3]; ARPE-19): 0.0091%
Cytotoxic threshold (using trypan blue) ([4]; 0.1 mM): −
Cytotoxic threshold (using trypan blue) ([4]; 0.5 mM): −
Cytotoxic threshold (using trypan blue) ([4]; 0.75 mM): −
Cytotoxic threshold (using trypan blue) ([4]; 1 mM): −
Cytotoxic threshold (using trypan blue) ([4]; 2 mM): −
Cytotoxic threshold (using trypan blue) ([4]; 3 mM): +
Cytotoxic threshold (using trypan blue) ([4]; 5 mM): +
Cytotoxic threshold (using trypan blue) ([4]; 7 mM): +
Cytotoxic threshold (using trypan blue) ([4]; 10 mM): +
tolerable level ([4]; bovine corneal endothelial cells): 0.0273%
highest tolerated level ([4]; bovine corneal endothelial cells, 48 hrs): 2 mM and 3 mM
decrease in light transmission, 400-500 nm blue light region [5]: 3.6%
propensity to induce tissue yellowing [6]: greatest propensity to induce tissue yellowing
Ts onset shift ([7]; 1 mM serially applied over 6 days): 1-2 °C
shift in Ts (in words) ([7]; 1 mM, 4 days without replacing the incubation solution): did not produce a shift in Ts
Ts onset shift ([7]; 10 mM): 5 °C
Ts onset shift ([7]; 100 mM): 8 °C
yellowing effect [8]: significant yellowing effect
